Assay results published in patent US12624068B2, “Exon skipping by peptide nucleic acid derivatives” (OliPass Corporation, priority 2016, dated 2026).
[C(1O2)] = modified PNA monomer acting as cytosine, C(pOq) type, 1O2; [A(5)] = modified PNA monomer acting as adenine, A(p) type, p=5; {Fmoc} = N-terminal Fmoc cap; {NH2} = C-terminal amide

Key:
complementary 10-mer DNA = test: Tm of 10-mer model PNA with complementary 10-mer DNA; assay type: binding; settings: for Tm: 4 μM PNA and 4 μM complementary 10-mer DNA, aqueous buffer pH 7.16, uncorrected; for ΔTm (Tm value - Tm value of PNA 10-1): complementary 10-mer DNA
Experimental: (§1) The 10-mer PNA oligomers in Table 12 were evaluated for their binding affinity for the complementary 10-mer RNA or DNA by measuring Tm values as described below.
(§2) A mixed solution of 4 μM 10-mer PNA oligomer and 4 μM complementary 10-mer DNA or RNA in 4 mL aqueous buffer (pH 7.16, 10 mM sodium phosphate, 100 mM NaCl) in 15 mL polypropylene falcon tube was incubated at 90° C. for a minute and slowly cooled down to ambient temperature. Then the solution was transferred into a 4 mL quartz UV cuvette, and subjected to Tm measurement at 260 nm on a UV/Visible spectrophotometer as described in the prior art [PCT/KR2009/001256] or with minor modifications. The DNA and RNA for Tm measurement were purchased from Bioneer (www.bioneer.com, Dajeon, Republic of Korea) and used without further purification.

complementary 10-mer RNA = test: Tm of 10-mer model PNA with complementary 10-mer RNA; assay type: binding; settings: for Tm: 4 μM PNA and 4 μM complementary 10-mer RNA, aqueous buffer pH 7.16, uncorrected; for ΔTm (Tm value - Tm value of PNA 10-1): complementary 10-mer RNA
Experimental: as §1, §2

10-mer complementary DNA = test: Tm between PNA derivatives and 10-mer complementary DNA (N- or C-terminal); assay type: binding; settings: uncorrected
Experimental: as §2
PNA derivatives of Formula I were evaluated for their binding affinity for 10-mer DNAs complementarily targeting either the N-terminal or C-terminal. The binding affinity was assessed by the Tm value for the duplex between PNA and 10-mer complementary DNA. The duplex between PNA derivatives and DNAs of full complementarity usually show Tm values too high to be reliably determined in aqueous buffer solution. The aqueous buffer solution tends to boil off during Tm measurement.

SCN9A mRNA = test: SCN9A nested qPCR by SYBR Green in PC3 cells; assay type: cell-based, human; settings: PC3 cells, 24 hours
Experimental: “SCN-ASO 7” was evaluated for its ability to inhibit the expression of the human SCN9A mRNA in PC3 cells by qPCR against a set of exon-specific primers as follows. [Cell Culture & ASO Treatment] PC3 cells grown in 60 mm culture dish containing 5 mL culture medium were incubated with “SCN-ASO 7” for 24 hours at 0 (negative control), 10, 100 or 1,000 zM. (2 culture dishes per concentration) [RNA Extraction] […] [cDNA Synthesis by One Step RT-PCR] […] NO: 78); and SCN-exon 9_reverse: (5'→3') […] NO: 79)]. […] [Nested qPCR Amplification] […] NO: 80); SCN-exon 4_reverse: (5'→3') […] NO: 81); SCN-exon 5_forward: (5'→3') […] NO: 82); SCN-exon 5_reverse: (5'→3') […] NO: 83); SCN-exon 6_forward: (5'→3') […] NO: 84); SCN-exon 6_reverse: (5'→3') […] NO: 85)]. The PCR reactions were probed with SYBR Green (Takara, Japan). […] “SCN-ASO 3” was evaluated for its ability to inhibit the expression of the full-length SCN9A mRNA in PC3 cells according to the protocol described in “SCN9A Example 2”, unless noted otherwise. “SCN-ASO 8” was evaluated for its ability to inhibit the expression of the full-length SCN9A mRNA in PC3 cells according to the protocol described in “SCN9A Example 2”, unless noted otherwise.

[1] = system: sodium current in PC3 cells; test: CoroNa assay of sodium current in PC3 cells; assay type: cell-based, human; settings: 30 hours
Experimental: Cellular sodium current is measured by patch clamp. As sodium ions enter cell, the intra-cellular sodium ion level increases. The intra-cellular sodium level can be probed using a sodium ion sensitive dye. “CoroNa Green” is a dye with a sodium ion chelator of crown ether type. Upon chelation with a sodium ion, “CoroNa Green” emits green fluorescence. “CoroNa Green” has been used to indirectly measure the intra-cellular sodium level. […] [Proc. Natl. Acad. Sci. USA vol 106(38), 16145-16150 (2009)]
PC3 cells are known to abundantly express the human SCN9A mRNA, although there are other SCN subtypes concomitantly expressed. [Br J. Pharmacol. vol 156, 420-431 (2009)] Thus an inhibition of SCN9A mRNA expression may lead to a considerable reduction of the sodium current in PC3 cells, if the sodium ion current by the Nav1.7 sodium channel subtype occupies a marked portion of the total sodium ion current in PC3 cells. It is note that the SCN9A mRNA encodes the Nav1.7 sodium channel subtype.
“SCN-ASO 7” was evaluated for its ability to inhibit the sodium ion current in PC3 cells using “CoroNa Green” as follows.
[ASO Treatment] PC3 cells grown in 35 mm culture dish containing 2 mL F-12K medium were treated with “SCN-ASO 7” at 0 zM (negative control), 100 zM or 1 aM.
[CoroNa Assay] 30 hours later, the cells were washed with 2 mL HBSS (Hank's Balanced Salt Solution, Cat. Number 14025-092, Life Technologies), and then charged with 2 mL fresh HBSS. Then the cells were treated with 5 μM “CoroNa Green” (Cat. Number C36676, Life Technologies) at 37° C. 30 min later, the cells were washed 2× with 2 mL HBSS, and charged with 2 mL fresh HBSS. The culture dish was mounted on an Olympus fluorescence microscope equipped with a digital video camera to continuously capture the green fluorescence images of the cells. The cells were acutely treated with 100 mM NaCl, and then the changes in fluorescence cellular images were digitally recorded over a period of 3 min. There were about 4 cells per frame on average. The fluorescence intensities from each individual cell were traced at the resolution of a second. The traces of the intracellular fluorescence intensities from individual cells were overlaid and averaged at each time point. The average of the traces from the individual cells of each ASO concentration were plotted as provided in FIG. 30A using ImageJ program (version 1.50i, NIH). The average fluorescence intensity trace was taken as the individual intra-cellular sodium concentration trace for the cells treated with “SCN-ASO 7” at 0 (negative control), 100 or 1,000 zM.
“SCN-ASO 3” was evaluated for its ability to inhibit the sodium current in PC3 cells using “CoroNa Green” according to the protocol described in “SCN9A Example 5”, unless noted otherwise.
“SCN-ASO 8” was evaluated for its ability to inhibit the sodium current in PC3 cells using “CoroNa Green” according to the protocol described in “SCN9A Example 3”, unless noted otherwise.

[2] = system: rats with diabetes-induced peripheral neuropathic pain (DPNP); test: Reversal of allodynia (von Frey) in rats with diabetes-induced peripheral neuropathic pain; assay type: in vivo, rat; settings: 100 pmole/Kg subcutaneous in Days 11, 13, 15, 17 and 19
Experimental: “SCN-ASO 7”, “SCN-ASO 8”, “SCN-ASO 21”, “SCN-ASO 35”, “SCN-ASO 36” and “SCN-ASO 37” were evaluated for their ability to reverse the allodynia in rats with diabetes-induced peripheral neuropathic pain (DPNP). In this example, the six SCN9A ASOs targeting a total of five splice sites were evaluated for their ability to reverse the allodynia induced by diabetic neuropathy in rats.
[Induction of DPNP and Grouping] Diabetes was induced in rats by an intraperitoneal injection of streptozotocin at 60 mg/Kg in Day 0. In Day 10, rats with DPNP were randomly assigned to […] of negative control (vehicle only), “SCN-ASO 7” 100 pmole/Kg, “SCN-ASO 8” 100 pmole/Kg, “SCN-ASO 21” 100 pmole/Kg, “SCN-ASO 35” 100 pmole/Kg, “SCN-ASO 36” 100 pmole/Kg, and “SCN-ASO 37” 100 pmole/Kg. The animals were grouped based on the von Frey scores of individual animals in Day 10. (N=8-9 per group) Allodynia was scored using a set of microfilaments (Touch Test®) according to the “Up & Down” method. [J Neurosci. Methods vol 53(1), 55-63 (1994)]
[ASO Treatment and von Frey Scoring] ASO solutions for injection were prepared by serially diluting aqueous mother stock solutions of the SCN9A ASOs to 100 nM in PBS (phosphate buffered saline). Animals were subcutaneously administered with ASO at 1 mL/Kg in Days 11, 13, 15, 17 and 19. Von Frey scoring was carried out 2 hours post dose in Days 11, 13, 15, 17 and 19. Von Frey scoring was additionally performed in Days 21 and 23 in order to assess the duration of the therapeutic activity after the final dosing. Daily von Frey scores were evaluated for statistical significance by student's t-test against the negative control group (vehicle only, i.e., PBS).

Row | Substance | Tm (complementary 10-mer DNA) [°C] | ΔTm (Tm value - Tm value of PNA 10-1) (complementary 10-mer DNA) | Tm (complementary 10-mer RNA) [°C] | ΔTm (Tm value - Tm value of PNA 10-1) (complementary 10-mer RNA) | Tm Value, 10-mer DNA against C-Terminal (10-mer complementary DNA) [°C] | Tm Value, 10-mer DNA against N-Terminal (10-mer complementary DNA) [°C] | decrease of expression levels of SCN9A exons 4-6 (SYBR Green) (SCN9A mRNA; 10 zM) | decrease of expression levels of SCN9A exons 4-6 (SYBR Green) (SCN9A mRNA; 100 zM) | decrease of sodium current (CoroNa) ([1]; PC3 cells, 100 zM) [%] | decrease of sodium current / sodium channel activity (CoroNa) ([1]; PC3 cells, 1,000 zM) [%] | average cellular fluorescence intensity (CoroNa Green) ([1]; PC3 cells, 1,000 zM, at 100 sec after 100 mM NaCl) [arbitrary unit] | maximum therapeutic efficacy based on the von Frey scores in Day 19 [2] [%]
1 | Fmoc-GTA(5)-GA(5)T-C(1O2)AC-T-NH2 (GTAGATCACT; all peptide nucleic acid (PNA), [A(5)] at 3, 5, [C(1O2)] at 7, 5' {Fmoc}, 3' {NH2}; model 10-mer peptide nucleic acid written N to C) [PNA 10-7] | 69 | +18 °C | 69 | +18 °C |  |  |  |  |  |  |  | 
2 | Fmoc-GTA(5)-GA(5)T-CA(5)C-T-NH2 (GTAGATCACT; all peptide nucleic acid (PNA), [A(5)] at 3, 5, 8, 5' {Fmoc}, 3' {NH2}; model 10-mer peptide nucleic acid written N to C) [PNA 10-4] | 66 | +15 °C | 66 | +11 °C |  |  |  |  |  |  |  | 
3 | Fmoc-GTA-GAT-CAC-T-NH2 (GTAGATCACT; all peptide nucleic acid (PNA), 5' {Fmoc}, 3' {NH2}; model 10-mer peptide nucleic acid written N to C) [PNA 10-1, reference compound] | 51 |  | 55 |  |  |  |  |  |  |  |  | 
4 | Fmoc-TA(5)A-A(5)TA(5)-CGC(1O2)-AA(5)A-A(5)AC-A(5)A-NH2 (TAAATACGCAAAAACAA; chemistry not fully specified) [SCN-ASO 8] |  |  |  |  | 68.6 | 74.0 | 50-70% | 70-80% | 30 | 31 | 89.7 | 61
